Laboratory results from patent US10947229B2, “Dimethyl amino azetidine amides as JAK inhibitors” (THERAVANCE BIOPHARMA R&D IP, LLC, priority 2018, dated 2021).

Assays:
JAK2 = JAK2 (Homo sapiens (Human), UniProt O60674); experiment: Biochemical JAK kinase assay (LanthaScreen), JAK2
Experimental: (§1) Recombinant GST-tagged JAK enzymes and a GFP-tagged STAT1 peptide substrate were obtained from Life Technologies. Serially diluted compounds were pre-incubated with each of the four JAK enzymes and the substrate in white 384-well microplates (Corning) at ambient temperature for 1 h. ATP was subsequently added to initiate the kinase reactions in 10 μL total volume, with 1% DMSO. […] Kinase reactions were allowed to proceed for 1 hour at ambient temperature before a 10 μL preparation of EDTA (10 mM final concentration) and Tb-anti-pSTAT1 ([…]) antibody (Life Technologies, 2 nM final concentration) in TR-FRET dilution buffer (Life Technologies) was added. The plates were allowed to incubate at ambient temperature for 1 h before being read on the EnVision reader (Perkin Elmer). Emission ratio signals (520 nm/495 nm) were recorded and utilized to calculate the percent inhibition values based on DMSO and background controls. For dose-response analysis, percent inhibition data were plotted vs. compound concentrations, and IC50 values were determined from a 4-parameter robust fit model with the Prism software (GraphPad Software). Results were expressed as pIC50 (negative logarithm of IC50) and subsequently converted to pKi (negative logarithm of dissociation constant, Ki) using the Cheng-Prusoff equation. Test compounds having a lower Ki value or higher pKi value in the four JAK assays show greater inhibition of JAK activity.

Tyk2 = Tyk2 (Homo sapiens (Human), UniProt P29597); experiment: Biochemical JAK kinase assay (LanthaScreen), Tyk2
Experimental: as §1, with “equation.” for “equation. Test compounds having a lower Ki value or higher pKi value in the four JAK assays show greater inhibition of JAK activity.”

JAK3 = JAK3 (Homo sapiens (Human), UniProt P52333); experiment: Biochemical JAK kinase assay (LanthaScreen), JAK3
Experimental: as §1, with “equation.” for “equation. Test compounds having a lower Ki value or higher pKi value in the four JAK assays show greater inhibition of JAK activity.”

Lung S9 metabolism = assay type: in vitro ADME, human; conditions: for Compound Remaining at 60 min (%) / microsomal CLint at 1 µM: human lung S9, 1 μM compound, 1 mg/mL S9 protein; for Sulfate Appearance: human lung S9, qualitative O-sulfate metabolite peak; for microsomal CLint at 1 µM: human lung S9 fraction, pH 7.4, NADPH and PAPS, read-out: Clearance
Experimental: The time 0, 15, 30, and 60 minute samples were analyzed for parent compound by high resolution LC-MS/MS. Lung S9 fractions from human (lot 1410245) were purchased from XenoTech LLC (Lenexa, Kans.). NADPH (Sigma Aldrich, N1630) and 3-phosphoadenosine 5-phosphosulfate (PAPS) (Sigma Aldrich, A1651) were purchased from Sigma Aldrich (St. Louis, Mo.). Acetonitrile and water were obtained from VWR (Radnor, Pa.) and were of HPLC grade or better. Raloxifene and formic acid was purchased from Sigma Aldrich (St. Louis, Mo.). Lung S9 incubations were performed in a water bath at 37° C. in a 96-well polypropylene plate. […] Louis, Mo.), 3 mM magnesium chloride (Sigma Aldrich, M1028) and in the presence of 100 μM PAPS (Sigma-Aldrich, St. […] Incubation volumes consisted of 400 μL and time points were taken at 0, 15, 30, and 60 minutes by the removal of a 70 μL aliquot and dilution into 140 μL acetonitrile (0% formic acid). All samples were centrifuged at 2250 g for 10 minutes at 5° C. Supernatant […] was taken from the centrifuged samples and diluted into 100 μL HPLC water containing internal standard. The samples were run on a Dionex Ultimate 3000 Auto sampler and analyzed using a Thermo Q-Exactive High Resolution Mass Spectrometer (Thermo, Waltham, Mass.) in Full Scan mode in conjunction with an Atlantis T3 column 3 μM-2.1×50 mm (Waters Inc., 186003717). Mobile Phase A consisted of Water+0.2% formic acid and Mobile Phase B consisted of acetonitrile +0.2% formic acid. Peak integration was accomplished using Gubbs GMSU software (Gubbs Inc., Alpharetta, Ga.). For each sample, peak area ratios were calculated by dividing the analyte peak area by the internal standard peak area. For each incubation, the peak area ratios of the analytes in each t0 was set to 100%, and the peak areas ratios from the 60 minute samples were converted to percentages remaining relative to the corresponding t0. Determination of sulfate metabolite formation was made qualitatively by observation of early-eluting peak in the parent ion channel which, based on historical internal data, corresponded to the O-sulfate metabolite of each parent compound.

[1] = test system: IL-2 stimulated pSTAT5 in Tall-1 T cells; experiment: Inhibition of IL-2 stimulated pSTAT5 in Tall-1 T cells; assay type: cell-based; conditions: IL-2 stimulated pSTAT5, Tall-1 human T cell line; read-out: Tall-1 pIC50 (converted)
Experimental: The potency of test compounds for inhibition of interleukin-2 (IL-2) stimulated STAT5 phosphorylation was measured in the Tall-1 human T cell line (DSMZ) using AlphaLisa. Because IL-2 signals through JAK1/3, this assay provides a measure of JAK1/3 cellular potency.
Phosphorylated STAT5 was measured via the AlphaLISA SureFire Ultra pSTAT5 (Tyr694/699) kit (PerkinElmer).
Human T cells from the Tall-1 cell line were cultured in a 37° C., 5% CO2 humidified incubator in RPMI (Life Technologies) supplemented with 15% Heat Inactivated Fetal Bovine Serum (FBS, Life Technologies), 2 mM Glutamax (Life Technologies), 25 mM HEPES (Life Technologies) and 1× Pen/Strep (Life Technologies). Compounds were serially diluted in DMSO and dispensed acoustically to empty wells. Assay media (phenol red-free DMEM (Life Technologies) supplemented with 10% FBS (ATCC)) was dispensed (4 μL/well) and plates shaken at 900 rpm for 10 mins. Cells were seeded at 45,000 cells/well in assay media (4 μL/well), and incubated at 37° C., 5% CO2 for 1 hour, followed by the addition of IL-2 (R&D Systems; final concentration 300 ng/mL) in pre-warmed assay media (4 μL) for 30 minutes. After cytokine stimulation, cells were lysed with 6 ul of 3× AlphaLisa Lysis Buffer (PerkinElmer) containing 1× PhosStop and Complete tablets (Roche). The lysate was shaken at 900 rpm for 10 minutes at room temperature (RT). Phosphorylated STAT5 was measured via the pSTAT5 AlphaLisa kit (PerkinElmer). Freshly prepared acceptor bead mixture was dispensed onto lysate (5 μL) under green filtered <100 lux light. Plates were shaken at 900 rpm for 2 mins, briefly spun down, and incubated for 2 hrs at RT in the dark. Donor beads were dispensed (5 μL) under green filtered <100 lux light. Plates were shaken at 900 rpm for 2 minutes, briefly spun down, and incubated overnight at RT in the dark. Luminescence was measured with excitation at 689 nm and emission at 570 nm using an EnVision plate reader (PerkinElmer) under green filtered <100 lux light.
To determine the inhibitory potency of test compounds in response to IL-2, the average emission intensity of beads bound to pSTAT5 was measured in a human T cell line. IC50 values were determined from analysis of the inhibition curves of signal intensity versus compound concentration. Data are expressed as pIC50 (negative decadic logarithm IC50) values (mean±standard deviation).

JAK1 = JAK1 (Homo sapiens (Human), UniProt P23458); experiment: Biochemical JAK kinase assay (LanthaScreen), JAK1
Experimental: as §1, with “equation.” for “equation. Test compounds having a lower Ki value or higher pKi value in the four JAK assays show greater inhibition of JAK activity.”

JAK2, sequence (O60674 whole entry): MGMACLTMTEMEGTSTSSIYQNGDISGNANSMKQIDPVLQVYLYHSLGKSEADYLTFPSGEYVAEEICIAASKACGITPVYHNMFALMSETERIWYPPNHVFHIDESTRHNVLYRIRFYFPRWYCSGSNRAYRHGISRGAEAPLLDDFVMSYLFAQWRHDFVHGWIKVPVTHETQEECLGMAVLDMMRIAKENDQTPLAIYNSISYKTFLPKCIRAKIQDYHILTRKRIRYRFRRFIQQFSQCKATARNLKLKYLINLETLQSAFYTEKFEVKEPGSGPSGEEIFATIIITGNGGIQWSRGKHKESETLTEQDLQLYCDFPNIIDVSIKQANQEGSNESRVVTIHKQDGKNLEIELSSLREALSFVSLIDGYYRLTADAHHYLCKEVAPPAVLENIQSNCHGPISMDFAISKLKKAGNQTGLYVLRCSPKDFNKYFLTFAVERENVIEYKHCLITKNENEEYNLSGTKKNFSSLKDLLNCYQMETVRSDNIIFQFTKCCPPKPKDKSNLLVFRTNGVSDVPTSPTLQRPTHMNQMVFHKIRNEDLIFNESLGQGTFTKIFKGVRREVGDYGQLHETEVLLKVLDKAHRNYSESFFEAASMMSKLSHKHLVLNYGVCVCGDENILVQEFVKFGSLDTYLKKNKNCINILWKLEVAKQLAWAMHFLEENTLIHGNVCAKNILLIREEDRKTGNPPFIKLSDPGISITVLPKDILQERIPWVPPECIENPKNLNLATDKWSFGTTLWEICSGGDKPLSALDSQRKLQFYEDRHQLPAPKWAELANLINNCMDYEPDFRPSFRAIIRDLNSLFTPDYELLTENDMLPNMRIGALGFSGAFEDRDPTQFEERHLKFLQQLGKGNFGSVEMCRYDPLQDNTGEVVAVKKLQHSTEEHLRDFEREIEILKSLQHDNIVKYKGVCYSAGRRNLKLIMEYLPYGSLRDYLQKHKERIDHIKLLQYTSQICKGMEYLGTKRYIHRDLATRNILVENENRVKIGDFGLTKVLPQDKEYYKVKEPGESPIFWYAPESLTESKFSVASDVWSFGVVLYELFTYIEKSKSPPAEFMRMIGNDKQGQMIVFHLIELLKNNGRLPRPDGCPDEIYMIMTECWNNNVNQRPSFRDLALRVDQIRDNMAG
JAK3, sequence (P52333 whole entry): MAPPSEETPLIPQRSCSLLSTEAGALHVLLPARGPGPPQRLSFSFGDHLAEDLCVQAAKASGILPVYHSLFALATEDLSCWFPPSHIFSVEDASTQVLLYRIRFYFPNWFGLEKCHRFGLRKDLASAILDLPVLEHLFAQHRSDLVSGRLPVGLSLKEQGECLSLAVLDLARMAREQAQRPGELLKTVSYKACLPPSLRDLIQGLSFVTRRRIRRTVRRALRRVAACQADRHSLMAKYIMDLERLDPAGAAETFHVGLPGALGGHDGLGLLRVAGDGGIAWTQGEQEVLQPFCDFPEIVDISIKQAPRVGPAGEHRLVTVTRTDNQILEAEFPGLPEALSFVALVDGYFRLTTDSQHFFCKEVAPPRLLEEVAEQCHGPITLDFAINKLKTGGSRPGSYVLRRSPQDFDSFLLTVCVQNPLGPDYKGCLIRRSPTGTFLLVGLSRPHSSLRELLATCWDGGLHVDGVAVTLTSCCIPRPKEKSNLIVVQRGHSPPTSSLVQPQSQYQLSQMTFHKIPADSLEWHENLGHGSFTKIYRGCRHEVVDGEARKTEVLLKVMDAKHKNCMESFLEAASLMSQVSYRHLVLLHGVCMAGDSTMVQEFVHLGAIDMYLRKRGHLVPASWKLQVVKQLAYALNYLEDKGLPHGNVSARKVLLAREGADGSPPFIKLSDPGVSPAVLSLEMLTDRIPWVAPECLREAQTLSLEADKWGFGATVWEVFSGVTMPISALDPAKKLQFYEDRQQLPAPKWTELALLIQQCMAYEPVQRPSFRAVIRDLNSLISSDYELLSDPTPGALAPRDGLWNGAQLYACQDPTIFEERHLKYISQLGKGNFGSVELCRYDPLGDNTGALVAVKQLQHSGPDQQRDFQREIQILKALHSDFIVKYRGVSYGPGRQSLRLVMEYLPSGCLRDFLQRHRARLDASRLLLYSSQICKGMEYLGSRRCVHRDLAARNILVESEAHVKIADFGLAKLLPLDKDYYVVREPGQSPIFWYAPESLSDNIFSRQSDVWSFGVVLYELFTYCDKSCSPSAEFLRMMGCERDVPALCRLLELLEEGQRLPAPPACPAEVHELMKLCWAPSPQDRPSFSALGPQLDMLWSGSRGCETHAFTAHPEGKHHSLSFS
Tyk2, sequence (P29597 whole entry): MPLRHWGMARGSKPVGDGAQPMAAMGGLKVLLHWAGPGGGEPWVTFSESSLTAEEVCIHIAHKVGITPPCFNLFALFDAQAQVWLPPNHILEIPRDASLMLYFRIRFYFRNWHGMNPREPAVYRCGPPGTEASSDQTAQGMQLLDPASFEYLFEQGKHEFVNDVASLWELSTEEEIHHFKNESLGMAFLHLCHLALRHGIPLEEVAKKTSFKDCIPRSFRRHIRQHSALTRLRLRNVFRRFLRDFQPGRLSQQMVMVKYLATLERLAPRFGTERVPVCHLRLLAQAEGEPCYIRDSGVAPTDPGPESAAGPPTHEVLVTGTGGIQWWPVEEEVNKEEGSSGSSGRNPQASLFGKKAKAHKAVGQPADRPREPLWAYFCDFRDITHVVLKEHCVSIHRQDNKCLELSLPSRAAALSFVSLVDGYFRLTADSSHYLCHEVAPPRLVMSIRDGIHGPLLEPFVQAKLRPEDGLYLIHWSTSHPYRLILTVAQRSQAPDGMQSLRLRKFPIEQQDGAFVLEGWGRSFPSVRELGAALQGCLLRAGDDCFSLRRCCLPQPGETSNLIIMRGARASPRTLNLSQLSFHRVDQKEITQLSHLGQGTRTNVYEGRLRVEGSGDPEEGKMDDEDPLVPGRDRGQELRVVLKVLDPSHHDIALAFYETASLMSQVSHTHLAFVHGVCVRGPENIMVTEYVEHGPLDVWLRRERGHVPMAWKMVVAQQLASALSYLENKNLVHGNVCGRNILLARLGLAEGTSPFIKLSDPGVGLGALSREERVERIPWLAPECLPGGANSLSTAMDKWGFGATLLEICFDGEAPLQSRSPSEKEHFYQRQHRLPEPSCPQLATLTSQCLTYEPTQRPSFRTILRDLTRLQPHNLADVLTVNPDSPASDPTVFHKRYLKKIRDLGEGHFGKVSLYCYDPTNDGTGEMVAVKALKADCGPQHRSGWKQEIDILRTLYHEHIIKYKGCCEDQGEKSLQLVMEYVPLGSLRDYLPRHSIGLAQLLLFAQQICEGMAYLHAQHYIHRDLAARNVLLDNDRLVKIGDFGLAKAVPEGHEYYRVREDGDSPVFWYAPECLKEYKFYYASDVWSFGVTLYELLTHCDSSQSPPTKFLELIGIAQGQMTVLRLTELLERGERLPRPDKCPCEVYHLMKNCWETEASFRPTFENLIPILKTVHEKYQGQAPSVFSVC
JAK1, sequence (P23458 whole entry): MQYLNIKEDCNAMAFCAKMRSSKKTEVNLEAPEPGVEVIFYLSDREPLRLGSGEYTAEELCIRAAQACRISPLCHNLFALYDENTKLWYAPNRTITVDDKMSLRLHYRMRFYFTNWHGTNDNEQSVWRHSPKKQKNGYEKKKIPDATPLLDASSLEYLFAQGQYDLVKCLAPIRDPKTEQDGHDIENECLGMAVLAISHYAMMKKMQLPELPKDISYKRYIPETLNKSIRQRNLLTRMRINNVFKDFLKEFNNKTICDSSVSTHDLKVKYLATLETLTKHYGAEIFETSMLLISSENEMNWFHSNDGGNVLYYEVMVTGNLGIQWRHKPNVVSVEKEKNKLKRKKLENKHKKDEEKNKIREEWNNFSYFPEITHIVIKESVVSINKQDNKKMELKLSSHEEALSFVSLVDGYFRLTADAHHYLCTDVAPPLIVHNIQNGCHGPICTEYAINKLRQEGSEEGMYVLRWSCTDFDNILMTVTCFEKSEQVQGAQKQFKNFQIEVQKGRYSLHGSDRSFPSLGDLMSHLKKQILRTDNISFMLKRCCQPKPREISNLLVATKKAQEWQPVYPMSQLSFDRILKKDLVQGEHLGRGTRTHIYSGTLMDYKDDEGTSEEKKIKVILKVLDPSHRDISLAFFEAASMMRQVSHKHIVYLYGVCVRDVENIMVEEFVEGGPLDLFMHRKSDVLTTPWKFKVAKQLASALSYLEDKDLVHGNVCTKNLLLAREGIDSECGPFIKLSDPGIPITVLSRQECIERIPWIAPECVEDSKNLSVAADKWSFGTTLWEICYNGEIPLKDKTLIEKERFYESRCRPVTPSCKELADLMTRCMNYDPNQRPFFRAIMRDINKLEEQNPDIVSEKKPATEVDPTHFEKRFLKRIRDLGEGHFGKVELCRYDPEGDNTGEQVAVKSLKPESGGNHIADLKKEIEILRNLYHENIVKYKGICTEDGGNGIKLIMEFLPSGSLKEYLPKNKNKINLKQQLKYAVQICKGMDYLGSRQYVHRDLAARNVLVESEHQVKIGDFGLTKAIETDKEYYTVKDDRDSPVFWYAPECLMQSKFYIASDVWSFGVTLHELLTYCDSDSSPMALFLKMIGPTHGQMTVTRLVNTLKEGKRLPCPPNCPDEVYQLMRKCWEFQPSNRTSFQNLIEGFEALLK

SMILES: CCc1cc(O)c(F)cc1-c1ccc2c(-c3nc4c([nH]3)CN(CC)[C@H](C(=O)N3CC(N(C)C)C3)C4)n[nH]c2c1 [Compound C-2, (S)-(3-(dimethylamino)azetidin-1-yl)(5-ethyl-2-(6-(2-ethyl-5-fluoro-4-hydroxyphenyl)-1H-indazol-3-yl)-4,5,6,7-tetrahydro-3H-imidazo[4,5-c]pyridin-6-yl)methanone]
- JAK2 pKi (JAK2): 10.9
- Tyk2 pKi (Tyk2): 9.4
- JAK3 pKi (JAK3): 9.5
- Compound Remaining at 60 min (%) (Lung S9 metabolism): 6%
- Sulfate Appearance (Lung S9 metabolism): Yes
- microsomal CLint at 1 µM (Lung S9 metabolism): 46.7 µL/min/mg
- IC50 [1]: 2 nM

SMILES: CCCN1Cc2[nH]c(-c3n[nH]c4cc(-c5cc(F)c(O)cc5CC)ccc34)nc2C[C@H]1C(=O)N1CC(N(C)C)C1 [Compound C-5, (S)-(3-(dimethylamino)azetidin-1-yl)(2-(6-(2-ethyl-5-fluoro-4-hydroxyphenyl)-1H-indazol-3-yl)-5-propyl-4,5,6,7-tetrahydro-3H-imidazo[4,5-c]pyridin-6-yl)methanone]
- JAK2 pKi (JAK2): 10.8
- Tyk2 pKi (Tyk2): 9.4
- JAK3 pKi (JAK3): 10.0
- JAK1 pKi (JAK1): 10.1
- Compound Remaining at 60 min (%) (Lung S9 metabolism): 5%
- Sulfate Appearance (Lung S9 metabolism): Yes
- microsomal CLint at 1 µM (Lung S9 metabolism): 50.5 µL/min/mg
- IC50 [1]: 2 nM
